This note sets out measurements from PubChem BioAssay (NCI).

Structures are written as SMILES.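 The compound was tested at five concentrations on cells cultured in 96-well plates, with a 48-hour exposure period. Here, GI50 denotes the concentration required for 50% inhibition of growth. TGI: concentration producing complete growth inhibition.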

Some test systems named below: MALME-3M melanoma; SR leukemia; OVCAR-8 ovarian; SF-295 CNS; OVCAR-4 ovarian; NCI-H23 lung; RPMI-8226 leukemia; SK-MEL-5 melanoma; MCF7 breast; BT-549 breast.
Assay in all cases: NCI tumour cell line growth inhibition, 48 h

As to `CC12CC(Sc3ccccc3N1)c1ccccc1O2` (configuration not stated), the TGI in the test on MALME-3M melanoma came out at 30.1 µM; in the test with SR leukemia it was 58 µM; in the test with OVCAR-8 ovarian it was 33.3 µM; in the test on SF-295 CNS, 29.8 µM; in the test with OVCAR-4 ovarian, 31.2 µM; in the test on NCI-H23 lung, 29.8 µM. Also, the results for the TGI with RPMI-8226 leukemia and with SK-MEL-5 melanoma were 48 µM and 28 µM, respectively.
Consider `CCN(CC)c1ccc(/C=C/C=C(/C#N)C(N)=S)cc1`, for which the GI50 was 32 µM in the test with MALME-3M melanoma; 8.07 µM with OVCAR-8 ovarian; 27.6 µM in the test on SF-295 CNS; 6.27 µM with OVCAR-4 ovarian; 8.45 µM with NCI-H23 lung; 2.14 µM in the test with RPMI-8226 leukemia. The GI50 was 14.5 µM with MCF7 breast, 5.96 µM in the test on SK-MEL-5 melanoma and 2.73 µM in the test with BT-549 breast. The TGI in the test with MALME-3M melanoma was > 100 µM; with OVCAR-8 ovarian, > 100 µM; with SF-295 CNS it was > 100 µM; in the test on OVCAR-4 ovarian, > 100 µM; in the test with NCI-H23 lung it was > 100 µM; in the test on RPMI-8226 leukemia, 7.88 µM. Also, the TGI in the test with MCF7 breast was > 100 µM; in the test with SK-MEL-5 melanoma, > 100 µM; in the test with BT-549 breast it was 16 µM.
Consider `COc1ccc(/C(=N/O)c2cc(OC)c(OC)c(OC)c2)c(OC)c1N`, for which the GI50 is 4.22 µM in the test with MALME-3M melanoma; 9.87 µM in the test with OVCAR-8 ovarian; 3.02 µM in the test with SF-295 CNS; 8.18 µM in the test on OVCAR-4 ovarian; 7.06 µM in the test on NCI-H23 lung; 5.35 µM in the test on RPMI-8226 leukemia. The figures for the GI50 in the test on MCF7 breast, in the test on SK-MEL-5 melanoma and in the test with BT-549 breast were 3.26 µM, 5.34 µM and 8.79 µM, respectively. Also, the TGI in the test on MALME-3M melanoma, in the test on OVCAR-8 ovarian, in the test on SF-295 CNS, in the test on OVCAR-4 ovarian, with NCI-H23 lung and in the test with RPMI-8226 leukemia was > 100 µM each time. For the same molecule, the TGI in the test with MCF7 breast, in the test on SK-MEL-5 melanoma and with BT-549 breast was > 100 µM in each case.
In the case of `CC/C=C\C[C@H](O)C/C=C1/C(=O)C=C[C@@H]1C/C=C\CCCC(=O)NC`, the GI50 in the test with MALME-3M melanoma is 1.94 µM; with OVCAR-8 ovarian, 2.4 µM; with SF-295 CNS, 2.44 µM; in the test with OVCAR-4 ovarian, 3.04 µM; in the test with NCI-H23 lung it was 1.82 µM; in the test on RPMI-8226 leukemia it was 0.957 µM. Besides, the GI50 in the test with MCF7 breast was 0.455 µM; with SK-MEL-5 melanoma it was 1.62 µM; in the test on BT-549 breast, 1.91 µM. Further, the TGI in the test on MALME-3M melanoma was 4.65 µM; in the test on OVCAR-8 ovarian it was 10.2 µM; in the test on SF-295 CNS it was 6.08 µM; in the test with OVCAR-4 ovarian, 19.5 µM; with NCI-H23 lung, 4.22 µM; with RPMI-8226 leukemia it was 6 µM. In addition, the TGI in the test with MCF7 breast stood at 10.7 µM; in the test on SK-MEL-5 melanoma, 2.98 µM; in the test with BT-549 breast it was 4.99 µM.
`C#CC(=O)OCC#CCOC(=O)C#C`: the TGI with MALME-3M melanoma is 38 µM; in the test on OVCAR-8 ovarian, 96 µM; in the test on SF-295 CNS it was > 100 µM; with NCI-H23 lung, 55 µM; in the test with RPMI-8226 leukemia, 34.3 µM; with MCF7 breast, 44.2 µM. For the same molecule, the TGI in the test on SK-MEL-5 melanoma was > 100 µM; in the test on BT-549 breast it was 36.6 µM.
With `CCOP(=O)(CC(=O)C1=C(O)C(CCCCNC(=O)OC(C)(C)C)N(Cc2ccccc2)C1=O)OCC` (configuration not stated), the TGI in the test on MALME-3M melanoma, in the test with SR leukemia, with OVCAR-8 ovarian, in the test on SF-295 CNS, in the test with OVCAR-4 ovarian and in the test with NCI-H23 lung was > 100 µM throughout. Moreover, the TGI in the test with RPMI-8226 leukemia and in the test on SK-MEL-5 melanoma was > 100 µM each time.
Turning to `Cc1cnc(SCCN2CCN(C)CC2)nc1-c1cc2ccccc2s1`, the TGI with MALME-3M melanoma was found to be 31.6 µM; in the test on SR leukemia, 8.46 µM; in the test on OVCAR-8 ovarian it was 25.8 µM; in the test with SF-295 CNS it was 21.2 µM; in the test with OVCAR-4 ovarian, 34.1 µM; in the test on NCI-H23 lung it was 34.3 µM. The TGI with SK-MEL-5 melanoma amounted to 14.6 µM.
Regarding `Brc1ccc(C2SCc3nc4ccccc4n32)cc1` (configuration not stated), the TGI in the test with MALME-3M melanoma turned out to be 30.2 µM; in the test on SR leukemia, 28.3 µM; with OVCAR-8 ovarian, 26.6 µM; in the test with SF-295 CNS, 24.8 µM; in the test with OVCAR-4 ovarian, 27.4 µM; in the test with NCI-H23 lung, 15.3 µM. Also, the TGI in the test with RPMI-8226 leukemia is 28.6 µM; with SK-MEL-5 melanoma, 12.5 µM.
For the molecule `CC(=O)NC1=C(Sc2ccc(Cl)cc2)C(=O)c2ccccc2C1=O`, the TGI in the test on MALME-3M melanoma came to 8 µM; in the test on OVCAR-8 ovarian, 6.77 µM; in the test on SF-295 CNS, 20.9 µM; in the test with OVCAR-4 ovarian, 3.34 µM; with NCI-H23 lung, 37 µM; with RPMI-8226 leukemia it was 3.65 µM. Besides, the TGI amounted to 5.01 µM in the test with MCF7 breast, 4.8 µM in the test on SK-MEL-5 melanoma and 18 µM in the test with BT-549 breast.
Regarding `O=C(CC1C(=O)Nc2ccccc2S1(=O)=O)Nc1cccc(Cl)c1` (configuration not stated), the TGI in the test with MALME-3M melanoma was 63.7 µM; in the test on SR leukemia, 40.7 µM; with OVCAR-8 ovarian, 33.1 µM; with SF-295 CNS it was 54.3 µM; in the test with OVCAR-4 ovarian, 36.6 µM; with NCI-H23 lung, 37.9 µM. The TGI with RPMI-8226 leukemia was found to be 24.1 µM; with SK-MEL-5 melanoma it was 35.8 µM.
Regarding `Cc1ccc(S(=O)(=O)SCc2ccccc2)cc1`, the TGI was 81.5 µM in the test on MALME-3M melanoma; 62.7 µM in the test on SR leukemia; 33.4 µM in the test on OVCAR-8 ovarian; > 89.7 µM with SF-295 CNS; 31.4 µM in the test with OVCAR-4 ovarian; 36.2 µM in the test with NCI-H23 lung. For the same molecule, the TGI was determined as 33.5 µM with RPMI-8226 leukemia and 54.5 µM in the test with SK-MEL-5 melanoma.
In the case of `COc1cc(NC(C)CCCN)c2ncccc2c1Sc1ccc(Cl)cc1` (configuration not stated), the GI50 was 1.64 µM in the test with OVCAR-8 ovarian; 2.01 µM in the test on SF-295 CNS; 1.72 µM in the test on OVCAR-4 ovarian; 1.7 µM in the test on NCI-H23 lung; 1.76 µM in the test with MCF7 breast; 1.72 µM in the test on SK-MEL-5 melanoma. Also, the TGI with OVCAR-8 ovarian stood at 3 µM; in the test on SF-295 CNS, 4.06 µM; in the test on OVCAR-4 ovarian, 3.1 µM; in the test with NCI-H23 lung, 3.3 µM; with MCF7 breast, 3.19 µM; with SK-MEL-5 melanoma, 3.09 µM.
Regarding `CN1C(=O)C(=CN(C)c2ccccc2)C(=O)N(C)C1=O`, the TGI in the test on MALME-3M melanoma, with SR leukemia, with OVCAR-8 ovarian, in the test on SF-295 CNS, in the test on OVCAR-4 ovarian and in the test on RPMI-8226 leukemia was > 100 µM throughout. The TGI in the test on SK-MEL-5 melanoma is > 100 µM.
